Consider eleven compounds from US20240109900A1, “AZABICYCLIC SHP2 INHIBITORS” (IRBM S.P.A., priority 2021, published 2024).

Read-outs that look alike come from different tables or passages of the source.

The target in experiment [1] is SHP-2 enzyme (Met1-Leu525) (Homo sapiens (Human), UniProt Q06124). Put plainly: SHP2 inhibition enzymatic assay. As to conditions: 75 μM DiFMUP substrate. It counts as biochemical. The procedure, abridged:
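SHP-2 (Met1-Leu525), 0.5 nM, activated with 500 nM IRS1 bis-phosphopeptide, preincubated 30 min with compounds in HEPES pH 7.2 buffer with 5 mM DTT. 75 μM DiFMUP added for 30 min at room temperature, stopped with bpV; fluorescence read. IC50 from four-parameter logistic fit of % inhibition.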

In experiment [2] the test system is ERK phosphorylation in KYSE-520 cells. Put plainly: Phospho-ERK cellular assay. It counts as cell-based. The settings on record: Homo sapiens, KYSE-520, 2 h, read-out: PERK IC50. The procedure, abridged: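 TR-FRET read-out of ERK1/2 Thr202/Tyr204 phosphorylation was taken after overnight antibody incubation at room temperature. Before that, KYSE-520 cells were treated 2 h at 37 °C with compound dilutions and lysed 30 min. Percent inhibition relative to vehicle and cell-free wells was fitted four-parametrically to give IC50.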

Setting [3] is: 0.5 nM SHP-2 activated by 500 nM IRS1 peptide, read-out: SHP2wt-IC50.
Setting [4] is: KYSE-520 cells, 2 h at 37° C., phospho-ERK1/2 (Thr202/Tyr204) TR-FRET.

Sequence of SHP-2 enzyme (Met1-Leu525) (Q06124 1-525): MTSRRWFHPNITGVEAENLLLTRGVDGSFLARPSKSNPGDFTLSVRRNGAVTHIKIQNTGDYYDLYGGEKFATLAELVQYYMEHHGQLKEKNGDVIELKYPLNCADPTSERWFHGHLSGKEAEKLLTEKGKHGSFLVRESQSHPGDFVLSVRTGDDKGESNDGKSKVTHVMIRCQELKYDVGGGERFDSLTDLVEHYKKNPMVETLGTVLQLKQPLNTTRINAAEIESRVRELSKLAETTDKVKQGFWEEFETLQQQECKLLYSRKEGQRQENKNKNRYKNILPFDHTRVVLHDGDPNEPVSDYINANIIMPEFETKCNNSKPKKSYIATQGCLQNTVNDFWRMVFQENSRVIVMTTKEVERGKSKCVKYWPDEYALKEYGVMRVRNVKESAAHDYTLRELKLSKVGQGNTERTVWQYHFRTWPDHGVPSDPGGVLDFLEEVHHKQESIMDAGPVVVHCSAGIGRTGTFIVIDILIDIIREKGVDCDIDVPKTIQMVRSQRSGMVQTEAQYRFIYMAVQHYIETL

Take `Cc1conc1C1(CN)C2CCN(c3cnc4c(-c5ccc6nn(C)cc6c5Cl)n[nH]c4n3)CC21` (stereo not shown) [Example 15, (3-(3-(4-chloro-2-methyl-2H-indazol-5-yl)-1H-pyrazolo[3,4-b]pyrazin-6-yl)-7-(4-methylisoxazol-3-yl)-3-azabicyclo[4.1.0]heptan-7-yl)methanamine]: the IC50 (usually the concentration at which inhibition is half-maximal) in experiment [1] (setting [3]) is under 0.5 µM; in experiment [2] (setting [4]), under 1 µM.

For the compound `NC[C@]1(c2ccccc2F)[C@@H]2CCN(c3cnc4c(-c5ccc(-c6cn[nH]c6)cc5Cl)n[nH]c4n3)C[C@@H]21` [Example 256, ((1S,6R,7R)-3-(3-(2-chloro-4-(1H-pyrazol-4-yl)phenyl)-1H-pyrazolo[3,4-b]pyrazin-6-yl)-7-(2-fluorophenyl)-3-azabicyclo[4.1.0]heptan-7-yl)methanamine], the IC50 in experiment [1] (setting [3]) is under 0.5 µM; in experiment [2] (setting [4]), under 1 µM.

Regarding `CS(=O)(=O)NC(=O)c1ccc(-c2n[nH]c3nc(N4CC[C@@H]5[C@H](C4)[C@@]5(CN)c4ccccc4F)cnc23)c2cccnc12` [Example 282, 5-(6-((1S,6R,7R)-7-(aminomethyl)-7-(2-fluorophenyl)-3-azabicyclo[4.1.0]heptan-3-yl)-1H-pyrazolo[3,4-b]pyrazin-3-yl)-N-(methylsulfonyl)quinoline-8-carboxamide], the IC50 is under 0.5 µM in experiment [1] (setting [3]) and under 1 µM in experiment [2] (setting [4]).

Take `Cn1cc2c(Cl)c(-c3n[nH]c4nc(N5CCC6C(C5)C6(CN)c5ccccc5)cnc34)ccc2n1` (stereo not shown) [Example 81, (3-(3-(4-chloro-2-methyl-2H-indazol-5-yl)-1H-pyrazolo[3,4-b]pyrazin-6-yl)-7-phenyl-3-azabicyclo[4.1.0]heptan-7-yl)methanamine]: the IC50 was under 0.5 µM in experiment [1] (setting [3]) and under 1 µM in experiment [2] (setting [4]).

`NCC1(c2ccon2)C2CCN(c3cnc4c(-c5cccc(Cl)c5Cl)n[nH]c4n3)CC21` (stereo not shown) [Example 99, (3-(3-(2,3-dichlorophenyl)-1H-pyrazolo[3,4-b]pyrazin-6-yl)-7-(isoxazol-3-yl)-3-azabicyclo[4.1.0]heptan-7-yl)methanamine]: the results for the IC50 in experiment [1] (setting [3]) and in experiment [2] (setting [4]) were under 0.5 µM and under 1 µM, respectively.

Regarding `Cc1cc(C2(CN)C3CCN(c4cnc5c(-c6ccnc7cccnc67)n[nH]c5n4)CC32)no1` (stereo not shown) [Example 35, (3-(3-(1,5-naphthyridin-4-yl)-1H-pyrazolo[3,4-b]pyrazin-6-yl)-7-(5-methylisoxazol-3-yl)-3-azabicyclo[4.1.0]heptan-7-yl)methanamine], the values for the IC50 in experiment [1] (setting [3]) and in experiment [2] (setting [4]) were 0.5 to 3 µM and 1 to 5 µM, respectively.

Consider `Cn1cnc2c(Cl)c(-c3n[nH]c4nc(N5CC[C@@H]6[C@H](C5)[C@@]6(CN)c5ccccc5F)cnc34)ccc21` [Example 329, ((1S,6R,7R)-3-(3-(4-chloro-1-methyl-1H-benzo[d]imidazol-5-yl)-1H-pyrazolo[3,4-b]pyrazin-6-yl)-7-(2-fluorophenyl)-3-azabicyclo[4.1.0]heptan-7-yl)methanamine], for which the IC50 in experiment [1] (setting [3]) was under 0.5 µM; in experiment [2] (setting [4]) it was under 1 µM.

On to `Cc1c(-c2n[nH]c3nc(N4CC[C@@H]5[C@H](C4)[C@@]5(CN)c4ccccc4F)cnc23)ccc2c1n(C)c(=O)n2C` [Example 261, 5-(6-((1S,6R,7R)-7-(aminomethyl)-7-(2-fluorophenyl)-3-azabicyclo[4.1.0]heptan-3-yl)-1H-pyrazolo[3,4-b]pyrazin-3-yl)-1,3,4-trimethyl-1,3-dihydro-2H-benzo[d]imidazol-2-one], for which the figures for the IC50 in experiment [1] (setting [3]) and in experiment [2] (setting [4]) were under 0.5 µM and under 1 µM, respectively.

For the compound `NC[C@]1(c2ccccc2F)[C@@H]2CCN(c3cnc(Sc4ccnc(N)c4Cl)c(N)n3)C[C@@H]21` [Example 384, 3-((2-amino-3-chloropyridin-4-yl)thio)-6-((1S,6R,7R)-7-(aminomethyl)-7-(2-fluorophenyl)-3-azabicyclo[4.1.0]heptan-3-yl)pyrazin-2-amine], the IC50 in experiment [1] (setting [3]) was under 0.5 µM; in experiment [2] (setting [4]) it was under 1 µM.

Regarding `NC[C@]1(c2ccccc2F)[C@@H]2CCN(c3cnc4c(-c5ccc6cn[nH]c(=O)c6c5)n[nH]c4n3)C[C@@H]21` [Example 254, 7-(6-((1S,6R,7R)-7-(aminomethyl)-7-(2-fluorophenyl)-3-azabicyclo[4.1.0]heptan-3-yl)-1H-pyrazolo[3,4-b]pyrazin-3-yl)phthalazin-1(2H)-one], the IC50 in experiment [1] (setting [3]) is under 0.5 µM; in experiment [2] (setting [4]), under 1 µM.

`Cc1csc(C2(CN)C3CCN(c4cnc5c(-c6ccc(OS(=O)(=O)F)c(Cl)c6Cl)n[nH]c5n4)CC32)n1` (stereo not shown) [Example 450, 4-(6-(7-(aminomethyl)-7-(4-methylthiazol-2-yl)-3-azabicyclo[4.1.0]heptan-3-yl)-1H-pyrazolo[3,4-b]pyrazin-3-yl)-2,3-dichlorophenyl sulfurofluoridate]: the IC50 in experiment [1] (SHP2wt-IC50, 0.5 nM SHP-2 activated by 500 nM IRS1 peptide) is under 0.5 µM; in experiment [2], under 1 µM.
